Results on ten molecules are retold here after paper PMC11491346, “Molecular insights and inhibitory dynamics of flavonoids in targeting Pim-1 kinase for cancer therapy” (Frontiers in Pharmacology, 2024).

pIC50: −log10 of the molar value.

In the first experiment the target is Pim-1 kinase (Homo sapiens, UniProt P11309). The experiment can be described thus: luminescence-based kinase assay (ADP to ATP, Ultra-Glo Luciferase), Pim-1 assay. Format: biochemical. The note with it: Figures 10, 11 and 13. From the text: Enzyme activity was quantified using a luminescence-based kinase assay, which tracks the conversion of ADP to ATP, subsequently producing light via Ultra-Glo™ Luciferase. This luminescence is indicative of ADP levels and thus, enzyme activity. This method is particularly effective for analyzing the influence of various chemicals on different kinases, serving both initial screenings and specificity profiling.
Sequence of Pim-1 kinase (P11309 whole entry): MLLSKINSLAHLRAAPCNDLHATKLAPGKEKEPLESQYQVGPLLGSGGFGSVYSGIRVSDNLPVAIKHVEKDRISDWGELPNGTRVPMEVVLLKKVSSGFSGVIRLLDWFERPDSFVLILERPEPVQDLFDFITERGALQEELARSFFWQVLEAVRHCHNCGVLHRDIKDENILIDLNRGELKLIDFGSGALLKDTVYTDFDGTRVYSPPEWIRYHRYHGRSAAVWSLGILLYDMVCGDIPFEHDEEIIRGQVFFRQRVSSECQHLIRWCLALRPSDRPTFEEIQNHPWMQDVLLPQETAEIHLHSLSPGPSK
The inhibitory concentration (IC50) values, expressed in micromolar (μM), were obtained from the Pim-1 assay. These values were converted to their corresponding negative logarithmic scale (pIC50) to facilitate a linear comparison using the following formula: pIC50=−log10 IC50 in M Where IC50 values were first converted from μM to molar (M) units before logarithmic transformation. Pulling force values, measured in pN, were sourced from the SMD experiments.
`O=c1cc(-c2ccccc2)oc2cccc(O)c12` [5-Hydroxyflavone]: the “class as Pim-1 kinase inhibitor (in words)” value is listed as “could not inhibit Pim-1 kinase activity”.
Same read-out and setting: next, `O=c1cc(-c2ccccc2)oc2ccc(O)cc12` [6-Hydroxyflavone]: “could not inhibit Pim-1 kinase activity”.

The experiment is the same for the next values; noted with them: Figures 10, 11 and 13; listed as 7-ydroxyflavone.
On to `O=c1cc(-c2ccccc2)oc2cc(O)ccc12` [7-Hydroxyflavone], for which the “class as Pim-1 kinase inhibitor (in words)” value is “could not inhibit Pim-1 kinase activity”.

The experiment is the same for the next values; noted with them: in vitro enzyme inhibition; read-out: Pim-1 kinase inhibitory activity IC50.
By pIC50 is commonly meant the negative decadic logarithm of the IC50, by convention in mol/L. For the molecule `O=c1c(O)c(-c2ccccc2)oc2ccccc12` [Compound 4, 3-Hydroxyflavone], the pIC50 is 4.45.
The same measure, in the same setting: next, `O=c1cc(-c2ccccc2)oc2cc(O)cc(O)c12` [Compound 6]: 5.27; `O=c1cc(-c2ccccc2)oc2cc(O)c(O)c(O)c12` [Compound 7]: 5.25.
As to `O=c1c(O)c(-c2ccccc2)oc2cc(O)cc(O)c12` [Compound 8, Galangin], the pIC50 was 5.74.
Turning to `O=c1c(O)c(-c2ccc(O)cc2)oc2cc(O)cc(O)c12` [Compound 9, Kaempferol], the pIC50 was 5.75.
Turning to `O=c1cc(-c2ccc(O)cc2)oc2cc(O)cc(O)c12` [Compound 10], the pIC50 is 5.28.
`O=c1cc(-c2ccc(O)c(O)c2)oc2cc(O)cc(O)c12` [Compound 11]: the pIC50 is 5.33.
